# Laboratory results: US20200362380A1, “Novel Biomolecule and Methods of Manufacturing Thereof” (priority 2018, published 2020)
# Test system: plants
# Assay: auxin effect on plants (media based agriculture)
# Type: in vivo
# Settings: media based agriculture with and without soil; statement in words only
# Source text: The resulting monomer can be leached through the media column and recuperated in pure form after filtering out any bacteria using appropriate filtration such as diatomaceous earth or filter paper. This can also be carried out in media based agriculture both with and without soil.
substance,measurement,value
3-4 deoxy-glucosamine [monomer],auxin effect on plants,pronounced auxin effect
